The results in this text go back to US11065257B2, “Substituted pyrazoloazepin-4-ones and their use as phosphodiesterase inhibitors” (LEO Pharma A/S, priority 2016, dated 2021).

Structures are written as SMILES.

T1 sequence (Q08499 380-740): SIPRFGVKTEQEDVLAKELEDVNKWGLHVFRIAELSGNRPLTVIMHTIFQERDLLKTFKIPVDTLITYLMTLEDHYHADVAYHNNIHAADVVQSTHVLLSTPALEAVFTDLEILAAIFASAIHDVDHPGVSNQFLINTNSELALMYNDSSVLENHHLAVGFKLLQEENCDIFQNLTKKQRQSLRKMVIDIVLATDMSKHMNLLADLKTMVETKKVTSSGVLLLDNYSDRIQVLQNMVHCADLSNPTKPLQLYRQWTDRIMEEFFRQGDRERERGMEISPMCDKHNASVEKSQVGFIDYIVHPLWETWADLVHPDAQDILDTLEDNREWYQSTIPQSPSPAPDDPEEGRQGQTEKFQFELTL

The assay has as its target T1, human PDE4D catalytic domain (Homo sapiens, UniProt Q08499).
T1 construct: UniProt no; Q08499 [S380-L740]
The assay is described as follows: PDE4 Assay. It counts as biochemical. The conditions noted are these: human PDE4D catalytic domain (S380-L740), TR-FRET with FAM-cAMP; expressed as a range of IC50; read-out: PDE4 Potency Range. In short, it runs like this:
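Catalytic domain (S380-L740) was incubated with unlabelled cAMP plus FAM-cAMP and titrated compound, then stopped with Tb-donor nanoparticles binding AMP phospho groups. Generated AMP was read by time-resolved FRET; IC50 was reported as 50% inhibition of substrate cleavage relative to controls, expressed as nM ranges.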
(In general: Time-resolved FRET reads energy transfer from a long-lived donor to a nearby acceptor.)
As to `CCc1nn(CCCOC(=O)c2sc(OC)nc2C)c2c1C(=O)NCC1(CCOCC1)C2` [Example 100, 3-(3-ethyl-4-oxo-spiro[6,8-dihydro-5H-pyrazolo[4,3-c]azepine-7,4′-tetrahydropyran]-1-yl)propyl 2-methoxy-4-methyl-thiazole-5-carboxylate], the IC50 is 100 to 500 nM.

As for `CCc1nn(CCCOC(=O)c2ccc3ncn(C)c3c2)c2c1C(=O)NCC1(CCOCC1)C2` [Example 101, 3-(3-ethyl-4-oxo-spiro[6,8-dihydro-5H-pyrazolo[4,3-c]azepine-7,4′-tetrahydropyran]-1-yl)propyl 3-methylbenzimidazole-5-carboxylate], the IC50 was less than 100 nM.

For `CCc1nn(CCCOC(=O)C2CCCS(=O)(=O)C2)c2c1C(=O)NCC1(CCOCC1)C2` (centres unmarked) [Example 102, 3-(3-ethyl-4-oxo-spiro[6,8-dihydro-5H-pyrazolo[4,3-c]azepine-7,4′-tetrahydropyran]-1-yl)propyl 1,1-dioxothiane-3-carboxylate], the IC50 is greater than 500 nM.

On to `CCc1nn(CCCOC(=O)C2CCS(=O)(=O)CC2)c2c1C(=O)NCC1(CCOCC1)C2` [Example 103, 3-(3-ethyl-4-oxo-spiro[6,8-dihydro-5H-pyrazolo[4,3-c]azepine-7,4′-tetrahydropyran]-1-yl)propyl 1,1-dioxothiane-4-carboxylate], for which the IC50 is greater than 500 nM.

Turning to `CCc1nn(CCCOC(=O)C2CCCN(C(=O)OC)C2)c2c1C(=O)NCC1(CCOCC1)C2` (centres unmarked) [Example 104, O3-[3-(3-ethyl-4-oxo-spiro[6,8-dihydro-5H-pyrazolo[4,3-c]azepine-7,4′-tetrahydropyran]-1-yl)propyl] O1-methyl piperidine-1,3-dicarboxylate], the IC50 lay in the range of 100 to 500 nM.

As to `CCc1nn(CCCOC(=O)C2CCN(C(=O)OC)CC2)c2c1C(=O)NCC1(CCOCC1)C2` [Example 105, O4-[3-(3-ethyl-4-oxo-spiro[6,8-dihydro-5H-pyrazolo[4,3-c]azepine-7,4′-tetrahydropyran]-1-yl)propyl] O1-methyl piperidine-1,4-dicarboxylate], the IC50 was in the range of 100 to 500 nM.

As for `CCc1nn(CCCOC(=O)C2CCCN(C(=O)N(C)C)C2)c2c1C(=O)NCC1(CCOCC1)C2` (centres unmarked) [Example 106, 3-(3-ethyl-4-oxo-spiro[6,8-dihydro-5H-pyrazolo[4,3-c]azepine-7,4′-tetrahydropyran]-1-yl)propyl 1-(dimethylcarbamoyl)piperidine-3-carboxylate], the IC50 is 100 to 500 nM.

`CCc1nn(C[C@@H](C)COC(=O)C2CCOC2)c2c1C(=O)NCC1(CCOCC1)C2` (stereo partly drawn) [Example 108, [(2R)-3-(3-ethyl-4-oxo-spiro[6,8-dihydro-5H-pyrazolo[4,3-c]azepine-7,4′-tetrahydropyran]-1-yl)-2-methyl-propyl] tetrahydrofuran-3-carboxylate]: the IC50 was less than 100 nM.

With `CCc1nn(C[C@@H](C)COC(=O)C2CCOCC2)c2c1C(=O)NCC1(CCOCC1)C2` [Example 109, [(2R)-3-(3-ethyl-4-oxo-spiro[6,8-dihydro-5H-pyrazolo[4,3-c]azepine-7,4′-tetrahydropyran]-1-yl)-2-methyl-propyl] tetrahydropyran-4-carboxylate], the IC50 was less than 100 nM.

With `CCc1nn(CC(C)(C)COC(=O)C2CCOC2)c2c1C(=O)NCC1(CCOCC1)C2` (centres unmarked) [Example 110, [3-(3-ethyl-4-oxo-spiro[6,8-dihydro-5H-pyrazolo[4,3-c]azepine-7,4′-tetrahydropyran]-1-yl)-2,2-dimethyl-propyl] tetrahydrofuran-3-carboxylate], the IC50 was 100 to 500 nM.

For `CCc1nn(CC(C)(C)COC(=O)C2CCOCC2)c2c1C(=O)NCC1(CCOCC1)C2` [Example 111, [3-(3-ethyl-4-oxo-spiro[6,8-dihydro-5H-pyrazolo[4,3-c]azepine-7,4′-tetrahydropyran]-1-yl)-2,2-dimethyl-propyl] tetrahydropyran-4-carboxylate], the IC50 lay in the range of 100 to 500 nM.
